Source: patent US20230263768A1, “WATER-SOLUBLE ARTESUNATE-BASED THERAPY FOR CORONAVIRUS INFECTION” (priority 2020, published 2023)

How the values were obtained:
[1] = test system: SARS-CoV-2 (isolate USA-WA1-2020); experiment: SARS-CoV-2 replication in VERO E6 cells, viral RNA by qPCR (Ct) after 48 h; assay type: cell-based
[2] = Solubility of artesunate formulations in simulated gastric fluid; assay type: physicochemical; conditions: 0.5 g in 10 mL SGF pH 1.2, 36.5° C., 100 rev/min, after 30 minutes
Method: An amount of 0.5 g of different artesunate formulations (untreated artesunate, sodium Artesunate, Artesunate/SG complex and WSA powders) are dispersed in 10 mL of simulated gastric fluid (SGF, pH 1.2). All solutions are incubated at 36.5° C. under mild shaking with (100 rev/min) in a G24 Environmental Incubator Shaker (New Brunswick Scientific Co., NJ, USA).

[3] = Example 4, 160 µg/mL, 48 h, VERO E6

| Compound | antiviral activity (in words) ([1]; Example 6, dose response and combination with Telmisartan) | appearance of the solution / precipitation in SGF [2] | Cycle Threshold Value (quantity of viral RNA) [1, 3] | antiviral activity (in words) [1, 3] | Cycle Threshold Value (quantity of viral RNA) ([1]; Example 4, 160 µg/mL, 48 h, VERO E6, listed as sodium artesunate) |
| --- | --- | --- | --- | --- | --- |
| CCCc1nc2c(C)cc(-c3nc4ccccc4n3C)cc2n1Cc1ccc(-c2ccccc2C(=O)O)cc1 [Telmisartan] | No activity antiviral is observed | – | – | – | – |
| C[C@H]1[C@H](OC(=O)CCC(=O)[O-])O[C@@H]2O[C@@]3(C)CC[C@H]4[C@H](C)CC[C@@H]1[C@@]24OO3.[Na+] [Sodium Artesunate] | – | cloudy, but no evident precipitation is observed | 22.5 | Low antiviral activity | about 23 |
| C[C@@H]1CCC2[C@@H](C)[C@H](OC(=O)CCC(=O)O)OC3O[C@]4(C)CCC1[C@]32OO4 (stereo partly drawn) [untreated Artesunate, Artesunate] | – | milky appearance, with an important precipitation at the bottom of vial | – | – | – |
